Assay results from PubChem BioAssay AID1224900.
pEC50: −log10 of the molar value.

Tested on: MDA-MB-231 viability, PrestoBlue fluorescence
Assay: antiproliferative effect, triple-negative breast cancer line – cell-based, MDA-MB-231, mTOR inhibitor project, dose response (AID 1224900)

- pEC50: 7.14
Compound: CCOC(Cn1nc(-c2ccc3oc(N)nc3c2)c2c(N)ncnc21)OCC
